Experimental data taken from ChEMBL document CHEMBL1201862, “PubChem BioAssay data set” (2004).
Calls of active or inactive are those of the source.

Assays:
Cytochrome P450 2C9 = Cytochrome P450 2C9 (Homo sapiens, UniProt P11712)
Cytochrome P450 3A4 = Cytochrome P450 3A4 (Homo sapiens, UniProt P08684);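 also: CYP3A4 tested as one member of a cytochrome P450 panel screen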
Cytochrome P450 2C19 = Cytochrome P450 2C19 (Homo sapiens, UniProt P33261); assay: Cytochrome panel assay with activity outcomes. Panel member name: p450-cyp2c19 Compounds with AC50 equal or less than 10 uM are considered active; assay type: functional
Chain of Cytochrome P450 2C19 (P33261 whole entry): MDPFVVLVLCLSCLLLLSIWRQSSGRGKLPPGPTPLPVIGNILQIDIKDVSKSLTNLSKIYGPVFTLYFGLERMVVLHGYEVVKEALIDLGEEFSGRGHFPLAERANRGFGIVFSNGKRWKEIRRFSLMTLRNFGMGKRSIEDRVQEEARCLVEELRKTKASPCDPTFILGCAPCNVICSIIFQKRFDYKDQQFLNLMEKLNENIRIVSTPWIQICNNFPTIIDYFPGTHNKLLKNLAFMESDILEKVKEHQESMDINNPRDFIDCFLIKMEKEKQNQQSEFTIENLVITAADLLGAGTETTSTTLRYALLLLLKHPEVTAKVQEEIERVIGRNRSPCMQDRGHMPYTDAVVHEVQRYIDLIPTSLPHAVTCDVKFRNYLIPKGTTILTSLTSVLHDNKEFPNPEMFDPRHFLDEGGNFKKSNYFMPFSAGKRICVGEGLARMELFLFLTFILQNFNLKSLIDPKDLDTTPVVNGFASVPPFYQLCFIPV

[1] = cytotoxicity toward NIH3T3 fibroblasts, dose response, counter-screen, cell-based, ATP luminescence, mouse fibroblasts (AID 2010); assay type: functional;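 also: cells exposed to compound for about 90 hours before reading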
[2] = inhibitors of intracellular T. cruzi replication, confirmation, NIH3T3 host cells, beta-gal luminescence (AID 2044); assay type: functional, cell-based;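 also: intracellular parasites grown in NIH/3T3 mouse fibroblasts as host cells; luminescent beta-galactosidase reporter signal from transgenic T. cruzi replicating inside host cells; inhibitors lower the luminescence signal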
[3] = biological target: T1, Rac GTPase-activating protein 1 (Homo sapiens, UniProt Q9H0H5); assay: MgcRacGAP GTPase-activating activity inhibitors, confirmation, biochemical, ADP Hunter fluorescence, primary and confirmatory (AID 624330); assay type: functional
T1 sequence (Q9H0H5 whole entry): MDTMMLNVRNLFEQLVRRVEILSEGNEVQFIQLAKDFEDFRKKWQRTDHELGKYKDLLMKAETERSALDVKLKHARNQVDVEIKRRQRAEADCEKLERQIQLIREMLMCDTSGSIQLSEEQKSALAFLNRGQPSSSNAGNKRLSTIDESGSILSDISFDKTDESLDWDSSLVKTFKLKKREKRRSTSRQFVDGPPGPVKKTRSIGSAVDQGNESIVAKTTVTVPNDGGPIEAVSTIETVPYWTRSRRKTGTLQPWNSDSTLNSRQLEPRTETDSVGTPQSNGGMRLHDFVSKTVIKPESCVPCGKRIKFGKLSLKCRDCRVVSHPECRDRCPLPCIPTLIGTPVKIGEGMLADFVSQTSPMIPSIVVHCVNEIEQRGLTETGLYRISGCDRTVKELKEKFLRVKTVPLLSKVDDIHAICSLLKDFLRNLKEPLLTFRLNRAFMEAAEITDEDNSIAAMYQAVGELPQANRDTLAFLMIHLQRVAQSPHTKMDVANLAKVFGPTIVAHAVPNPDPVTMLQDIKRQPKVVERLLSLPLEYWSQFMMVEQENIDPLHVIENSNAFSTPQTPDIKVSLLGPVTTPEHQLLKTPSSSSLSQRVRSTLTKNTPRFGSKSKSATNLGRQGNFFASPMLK

H4 = assay: Luminescence Cell-Based Dose Response HTS to Identify Activators of 5'UTR Stem-Loop Driven Prion Protein mRNA Translation in H4 Neuroglioblastoma Cells. [Related pubchem assays: 1829 (Project Summary), 1814 (Primary HTS)]; assay type: functional; conditions: Homo sapiens
Streptococcus = assay: Group A Streptococcus viability loss, dose response, counter-screen for streptokinase expression inhibitor project, luminescence, BacTiterGlo (AID 1915); assay type: functional, organism-based; conditions: Streptococcus;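 also: potency for reduction of bacterial viability or growth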
[4] = tested on: Streptococcus sp. 'group A'; assay: growth inhibition of control SK(-) GAS strain, dose response, counter-screen for streptokinase expression inhibitor project, luminescence, kanamycin, BacTiterGlo, confirmation (AID 1900); assay type: functional, organism-based; conditions: Streptococcus sp. 'group A'

Chain of Cytochrome P450 3A4 (P08684 whole entry): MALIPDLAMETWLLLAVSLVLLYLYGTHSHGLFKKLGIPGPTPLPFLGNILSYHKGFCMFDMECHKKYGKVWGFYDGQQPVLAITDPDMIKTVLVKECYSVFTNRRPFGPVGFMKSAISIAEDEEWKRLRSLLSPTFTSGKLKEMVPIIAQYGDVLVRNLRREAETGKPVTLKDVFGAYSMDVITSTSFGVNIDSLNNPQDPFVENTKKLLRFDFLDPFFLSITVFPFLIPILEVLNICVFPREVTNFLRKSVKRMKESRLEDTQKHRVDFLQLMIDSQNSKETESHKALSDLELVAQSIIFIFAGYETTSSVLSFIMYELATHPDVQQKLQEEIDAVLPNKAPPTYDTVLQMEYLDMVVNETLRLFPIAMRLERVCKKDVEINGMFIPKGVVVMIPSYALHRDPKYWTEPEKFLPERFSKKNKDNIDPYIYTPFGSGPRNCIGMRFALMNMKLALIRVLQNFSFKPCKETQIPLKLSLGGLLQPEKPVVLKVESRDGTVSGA
Chain of Cytochrome P450 2C9 (P11712 whole entry): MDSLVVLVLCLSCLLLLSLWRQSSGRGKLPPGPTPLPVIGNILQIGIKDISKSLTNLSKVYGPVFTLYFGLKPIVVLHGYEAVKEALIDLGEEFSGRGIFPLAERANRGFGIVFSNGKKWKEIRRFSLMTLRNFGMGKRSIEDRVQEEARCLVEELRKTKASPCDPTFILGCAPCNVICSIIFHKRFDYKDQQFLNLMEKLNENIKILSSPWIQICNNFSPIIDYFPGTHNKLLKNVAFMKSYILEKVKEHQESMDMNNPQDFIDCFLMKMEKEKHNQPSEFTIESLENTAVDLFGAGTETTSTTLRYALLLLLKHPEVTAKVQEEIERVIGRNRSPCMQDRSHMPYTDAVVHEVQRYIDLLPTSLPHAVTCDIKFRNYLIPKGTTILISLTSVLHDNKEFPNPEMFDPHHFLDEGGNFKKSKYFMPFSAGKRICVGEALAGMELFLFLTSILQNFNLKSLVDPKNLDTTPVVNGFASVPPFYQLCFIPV

SMILES: Cc1ccc(N[C@H](c2ccccc2)c2ccc3cccnc3c2O)cc1
- AC50 (Cytochrome P450 2C9): 3.98 µM (inconclusive)
- AC50 (Cytochrome P450 3A4): 3.16 µM (inconclusive)
- AC50 (Cytochrome P450 2C19; read-out: AC50): 3.98 µM (inconclusive)

SMILES: CCOc1ccc(N2C(=O)/C(=C/c3cc(OC)c(OC)c(OC)c3)N(CC(=O)OC)C2=S)cc1
- AC50 (Cytochrome P450 2C9): 1.41 µM (inconclusive)
- AC50 (Cytochrome P450 3A4): 15.8 µM (inconclusive)

SMILES: COCCn1c(=O)c(-c2ccccc2)nc2cnc(OCc3ccccc3)nc21
- AC50 (Cytochrome P450 2C19; read-out: AC50): 20 µM (inconclusive)

SMILES: COc1ccc(Cc2noc(CN3CCCN(Cc4ccc(F)cc4)CC3)n2)cc1OC
- EC50 [1]: > 60 µM (not active)
- EC50 [2]: 0.248 µM (active)

SMILES: N=C(NC(=O)c1ccccc1F)Nc1nc2ccccc2o1
- AC50 (Cytochrome P450 2C19; read-out: AC50): 22.4 µM (inconclusive)

SMILES: Cc1cccc(CNc2ncncc2-c2ccccc2C)c1
- AC50 (Cytochrome P450 2C9): 1.26 µM (inconclusive)

SMILES: COCCNc1nc(-c2ccccc2C)nc2ccccc12
- AC50 (Cytochrome P450 3A4): 12.6 µM (inconclusive)

SMILES: Cc1cccc(C(=O)c2ccccc2C(=O)O)c1O
- AC50 (Cytochrome P450 2C9): 0.1 µM (inconclusive)
- AC50 (Cytochrome P450 3A4): 25.1 µM (inconclusive)

SMILES: COc1cc(C(=O)NC(=S)Nc2ccc(Cl)c(C(=O)O)c2)cc(OC)c1OC
- AC50 (Cytochrome P450 2C9): 28.2 µM (inconclusive)

SMILES: Cc1nc2ccc(C(=O)Nc3ccc(N(C)C)cc3)cc2s1
- IC50 [3]: 39.3 µM (active)

SMILES: COc1ccc(C(=O)CCN(C)C)c2ccccc12
- AC50 (Cytochrome P450 3A4): 0.316 µM (inconclusive)

SMILES: COc1ccc(S(=O)(=O)N2CCCN(CC(=O)Nc3ccc(OC)c(Cl)c3)CC2)cc1
- AC50 (Cytochrome P450 2C9): 39.8 µM (inconclusive)

SMILES: CCOc1ccc(-n2c(SCc3nc(-c4ccc(C)cc4)no3)nnc2-c2ccncc2)cc1
- EC50 [1]: 6.76 µM (active)
- EC50 [2]: 1.31 µM (active)

SMILES: COc1cc(/C=C2\SC(=S)N(NC(=O)c3ccc(O)cc3)C2=O)ccc1O
- IC50 [3]: 59 µM (active)

SMILES: OCCN=c1cc(-c2ccccc2)oc2ccc(Cl)cc12
- AC50 (Cytochrome P450 3A4): 10 µM (inconclusive)

SMILES: O=C(O)/C(Cc1ccc([N+](=O)[O-])cc1)=N/O
- AC50 (Cytochrome P450 2C19; read-out: AC50): 5.01 µM (inconclusive)

SMILES: O=S(=O)(c1ccccc1)N1CN2CN(C1)CN(S(=O)(=O)c1ccccc1)C2
- AC50 (Cytochrome P450 2C9): 0.631 µM (inconclusive)

SMILES: COc1cccc(CNCCc2cccc(F)c2)c1OC
- EC50 [1]: > 60 µM (not active)
- EC50 [2]: 0.828 µM (active)

SMILES: c1ccc(CNc2ncncc2-c2ccc3c(c2)OCO3)cc1
- AC50 (Cytochrome P450 2C9): 0.316 µM (inconclusive)

SMILES: Nc1ccc(C(=O)N/N=C/c2ccccc2)cc1
- AC50 (Cytochrome P450 2C9): 0.282 µM (inconclusive)
- AC50 (Cytochrome P450 3A4): 15.8 µM (inconclusive)
- AC50 (Cytochrome P450 2C19; read-out: AC50): 15.8 µM (inconclusive)

SMILES: O=C(N/N=C/c1c(Nc2cccc(C(F)(F)F)c2)nc2ccccn2c1=O)c1ccccc1
- AC50 (Cytochrome P450 2C9): 12.6 µM (inconclusive)

SMILES: COc1ccc2[nH]c3c(c2c1)CCN1C(=O)N([C@@H](C)C(=O)NC2CCN(Cc4ccccc4)CC2)C(=O)[C@]31C
- EC50 [1]: > 60 µM (not active)
- EC50 [2]: 0.122 µM (active)

SMILES: COc1ccc(C(CC(=O)Nc2cc(OC)cc(OC)c2)n2cccc2)cc1 (stereo not drawn)
- EC50 [1]: > 60 µM (not active)
- EC50 [2]: 2.45 µM (active)

SMILES: Cn1c(=O)c2c(nc(Cc3ccccc3)n2CC(=O)O)n(C)c1=O
- AC50 (Cytochrome P450 2C19): inconclusive

SMILES: O=C(CNc1ccc2c(c1)OCO2)N/N=C\c1ccccc1Cl
- IC50 [3]: 114 µM (active)

SMILES: NC(S)=NNc1ccnc2cc(Cl)ccc12
- IC50 [3]: 110 µM (active)

SMILES: Cc1cccc(N/C=C(\[N+](=O)[O-])S(=O)(=O)c2ccccc2)c1C
- EC50 [1]: > 60 µM (inconclusive)
- EC50 [2]: > 60 µM (not active)

SMILES: Cc1ccc(-n2c(C)cc(C(=O)COC(=O)c3cccnc3O)c2C)cc1
- EC50 (H4): > 120 µM (not active)

SMILES: CCC(=O)N1N/C(=C2/C(=O)NC(=O)N(CCc3ccccc3)C2=O)CC1c1ccc(OC)c(OC)c1 (stereo not drawn)
- EC50 (Streptococcus): 26.4 µM (active)
- EC50 [4]: 1.4 µM (active)

SMILES: Cc1ccsc1C(=O)C1CCCN(Cc2cnc(N3CCOCC3)s2)C1 (stereo not drawn)
- EC50 [1]: > 60 µM (not active)
- EC50 [2]: 0.146 µM (active)

SMILES: Brc1ccccc1OCCCCCN1CCOCC1
- IC50 [3]: 146 µM (active)

SMILES: CCOc1cc(C=NNC(=O)CCCC(=O)NN=Cc2ccc(O)c(OCC)c2)ccc1O
- IC50 [3]: 50.4 µM (active)

SMILES: COCCn1c(=O)c(C)nc2cnc(Oc3ccccc3)nc21
- AC50 (Cytochrome P450 3A4): 25.1 µM (inconclusive)
- AC50 (Cytochrome P450 2C19; read-out: AC50): 39.8 µM (inconclusive)
